Each structure is given as a SMILES string. In brackets after ≈: the same amount, converted by molar mass.

Drawing on publication PMC10001202, “Preparation, Identification and Preliminary Application of the Fenvalerate Monoclonal Antibody in Six Kinds of Dark Tea” (Foods, 2023), this text covers IC50 and CR% for ten molecules.

Format in all cases: binding, BALB/c mice
The test system of one assay is McAb 2A11. The assay can be described thus: ic-ELISA cross-reactivity, McAb 2A11. The protocol:
(§1) The cross-reactivities with nine permethrin pesticides (deltamethrin, permethrin, cypermethrin, bifenthrin, fenpermethrin, fluobenzene, beta-cyhalothrin, dextrofenthrin, cypermethrin) were obtained, and McAb was determined to clarify the specificity of the monoclonal antibody prepared. The IC50 of the nine permethrin pesticides was measured by the ic-ELISA with the obtained McAb and the coating antigen. The cross-reactivity was calculated with the following Formula (1):Cross-reactivity (CR, %) = IC50 of Fen/IC50 of Fen analogs × 100%(1)
(In general: ELISA stands for enzyme-linked immunosorbent assay.)

The next assay concerns McAb 1B6. The assay can be described thus: ic-ELISA cross-reactivity, McAb 1B6. The procedure:
as §1

The next assay concerns McAb 5G2. The assay can be described thus: ic-ELISA cross-reactivity, McAb 5G2. The procedure: as §1
Where [1] appears, read: IC50 of Fen/IC50 of analog × 100%.

Usually IC50 stands for the midpoint of a concentration-inhibition curve. Low readings indicate greater potency in that assay, high ones weaker potency in that assay. With `Cc1c(COC(=O)[C@@H]2[C@H](/C=C(\Cl)C(F)(F)F)C2(C)C)cccc1-c1ccccc1` (racemic) [Bifenthrin], the half-maximal inhibitory concentration (IC50) with McAb 2A11, in the assay with McAb 1B6 and in the assay with McAb 5G2 was >10,000 ng/mL each time.

For `CC1(C)[C@H](C(=O)O[C@H](C#N)c2cccc(Oc3ccccc3)c2)[C@@H]1/C=C(\Cl)C(F)(F)F` (racemic) [Lambda-cyhalothrin], the IC50 in the assay on McAb 2A11, with McAb 1B6 and in the assay on McAb 5G2 was >10,000 ng/mL throughout.

`CC1(C)C(C=C(Cl)Cl)C1C(=O)OC(C#N)c1ccc(F)c(Oc2ccccc2)c1` (stereo not drawn) [Cyfluthrin]: the IC50 with McAb 2A11, in the assay on McAb 1B6 and in the assay with McAb 5G2 was >10,000 ng/mL each time.

Regarding `CC1(C)C(C=C(Cl)Cl)C1C(=O)OC(C#N)c1cccc(Oc2ccccc2)c1` (stereo not drawn) [Cypermethrin], the IC50 in the assay on McAb 2A11, in the assay on McAb 1B6 and in the assay with McAb 5G2 was >10,000 ng/mL in each case.

For `CC(C)=CC1C(C(=O)OCc2cccc(Oc3ccccc3)c2)C1(C)C` [D-Phenothrin], the IC50 in the assay on McAb 2A11, in the assay with McAb 1B6 and in the assay with McAb 5G2 was >10,000 ng/mL in each case.

As for `CC1(C)[C@H](C(=O)O[C@H](C#N)c2cccc(Oc3ccccc3)c2)[C@@H]1C=C(Br)Br` [Deltamethrin], the IC50 in the assay with McAb 2A11, in the assay on McAb 1B6 and with McAb 5G2 was >10,000 ng/mL throughout.

Take `CC1(C)C(C(=O)OC(C#N)c2cccc(Oc3ccccc3)c2)C1(C)C` (stereo not drawn) [Fenpropathrin]: the IC50 in the assay with McAb 2A11, in the assay on McAb 1B6 and in the assay with McAb 5G2 was >10,000 ng/mL throughout.

Consider `CC(C)C(C(=O)OC(C#N)c1cccc(Oc2ccccc2)c1)c1ccc(Cl)cc1` (stereo not drawn) [Fenvalerate], for which the IC50 with McAb 2A11 was found to be 24.29 ng/mL (≈ 0.0578 µM); with McAb 1B6 it was 36.6 ng/mL (≈ 0.0872 µM); in the assay with McAb 5G2, 21.65 ng/mL (≈ 0.0516 µM). Further, the CR% in the assay with McAb 2A11 (setting [1]), in the assay on McAb 1B6 (setting [1]) and in the assay with McAb 5G2 (setting [1]) was 100% each time.

For `CC1(C)C(C=C(Cl)c2ccc(Cl)cc2)C1C(=O)OC(C#N)c1ccc(F)c(Oc2ccccc2)c1` (stereo not drawn) [Flumethrin], the IC50 in the assay with McAb 2A11, in the assay on McAb 1B6 and with McAb 5G2 was >10,000 ng/mL throughout.

`CC1(C)C(C=C(Cl)Cl)C1C(=O)OCc1cccc(Oc2ccccc2)c1` (stereo not drawn) [Permethrin]: the IC50 in the assay with McAb 2A11, with McAb 1B6 and in the assay with McAb 5G2 was >10,000 ng/mL each time.
